Experimental data from patent US7939270B2 (priority 2005, dated 2011).

Target: WT αHL protein pore (Staphylococcus aureus, UniProt P09616)
Type: binding
Conditions: pH 7

Sequence of WT αHL protein pore (P09616 27-319 limits assumed): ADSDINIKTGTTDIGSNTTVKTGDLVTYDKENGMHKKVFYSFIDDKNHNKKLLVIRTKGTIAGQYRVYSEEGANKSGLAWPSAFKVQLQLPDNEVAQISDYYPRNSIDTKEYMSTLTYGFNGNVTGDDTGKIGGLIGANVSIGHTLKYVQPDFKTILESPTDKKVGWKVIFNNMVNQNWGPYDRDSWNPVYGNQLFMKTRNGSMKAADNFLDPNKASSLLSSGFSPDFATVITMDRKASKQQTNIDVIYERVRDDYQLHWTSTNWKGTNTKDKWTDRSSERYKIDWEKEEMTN

## OC[C@H]1O[C@@H]2O[C@H]3[C@H](O)[C@@H](O)[C@@H](O[C@H]4[C@H](O)[C@@H](O)[C@@H](O[C@H]5[C@H](O)[C@@H](O)[C@@H](O[C@H]6[C@H](O)[C@@H](O)[C@@H](O[C@H]7[C@H](O)[C@@H](O)[C@@H](O[C@H]8[C@H](O)[C@@H](O)[C@@H](O[C@H]9[C@H](O)[C@@H](O)[C@@H](O[C@H]1[C@H](O)[C@H]2O)O[C@@H]9CO)O[C@@H]8CO)O[C@@H]7CO)O[C@@H]6CO)O[C@@H]5CO)O[C@@H]4CO)O[C@@H]3CO [γ-cyclodextrin]
  binding kinetics and current attenuation of γ-cyclodextrin binding, pore inserted by the present method compared with the conventional method: the same
